# T1: Olfr78/Gpr132 (Mus musculus, UniProt Q8VBV9+Q9Z282)
# T1 construct: expressed in transfected cells; host or cells: Hana3A cells
# T1 sequence (Q8VBV9 1-320): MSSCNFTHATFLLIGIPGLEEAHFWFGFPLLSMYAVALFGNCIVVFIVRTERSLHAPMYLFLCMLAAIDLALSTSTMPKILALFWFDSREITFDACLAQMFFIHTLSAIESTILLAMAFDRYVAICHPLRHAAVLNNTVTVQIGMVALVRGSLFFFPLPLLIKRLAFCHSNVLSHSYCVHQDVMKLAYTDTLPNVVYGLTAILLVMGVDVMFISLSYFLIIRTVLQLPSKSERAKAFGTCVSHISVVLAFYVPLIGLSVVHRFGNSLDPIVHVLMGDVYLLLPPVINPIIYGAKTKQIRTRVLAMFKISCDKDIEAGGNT
# T1 sequence (Q9Z282 1-382): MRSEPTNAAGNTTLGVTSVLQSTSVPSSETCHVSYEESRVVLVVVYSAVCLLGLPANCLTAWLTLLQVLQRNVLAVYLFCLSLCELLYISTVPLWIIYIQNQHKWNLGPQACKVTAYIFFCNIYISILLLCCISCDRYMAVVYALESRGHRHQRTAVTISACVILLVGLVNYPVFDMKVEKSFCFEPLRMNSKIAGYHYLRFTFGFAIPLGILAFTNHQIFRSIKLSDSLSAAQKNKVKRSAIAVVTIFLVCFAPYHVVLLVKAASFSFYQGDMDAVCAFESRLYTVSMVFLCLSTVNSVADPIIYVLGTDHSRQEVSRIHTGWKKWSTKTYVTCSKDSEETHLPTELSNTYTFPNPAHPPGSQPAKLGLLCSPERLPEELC
# Key:
# Assay type in all cases: cell-based
# lactate dehydrogenase = assay: Lactate concentration in TCM of mouse tumor cell lines pretreated with oxamic acid; conditions: pretreatment of mouse tumor cell lines, FIG. 4A
# Protocol: The concentrations of lactate and acetate in TCM of cells cultured at 80% confluency were measured using lactate and acetate colorimetric assay kits (BioVision, Milpitas, CA). Briefly, 50 μL of TCM was mixed with lactate or acetate enzyme mix and the probe according to the manual and reacted for 30 min at room temperature. The concentrations of cytokines in the conditioned medium of macrophages were measured using cytokine ELISA kits (R&D Systems). Briefly, 100 μL of conditioned medium was added to plates precoated with antibodies against IL-4, IL-10, and TGF-β. Samples were reacted with corresponding antibodies conjugated to biotin and then with horseradish peroxidase-labeled streptavidin. Absorbance at 570 nm was measured using a microplate reader. The concentrations of lactate, acetate, and cytokines were calculated from the standard curves.
# To determine, though lactate is known to be important in M2 macrophage polarization, whether lactate is the main factor in TCM responsible for Olfr78-mediated M2 macrophage polarization, the prevent inventors treated WT BMDMs with TCM of mouse tumor cell lines pretreated with oxamic acid (OA), an inhibitor of lactate dehydrogenase that prevents lactate production. […] Up-regulation of M2 markers was attenuated (P<0.05) in WT BMDMs treated with lactate-depleted TCM (TCM+OA). […]
# BMDMs = assay: M1/M2 polarization of mouse BMDMs (flow cytometry, qRT-PCR, cell shape); conditions: for Olfr78 expression: BMDMs differentiated into M2 or M1 macrophages, FIG. 1B
# Protocol: BMDMs were isolated from tibias and femurs of C57BL6 or Balb/c mice and cultured in DMEM supplemented with 10 ng/mL macrophage colony-stimulating factor (Gibco, Carlsbad, CA) and 10% FBS for 7 d. The culture medium was changed every other day. For M1 polarization, BMDMs were cultured with 20 ng/mL recombinant mouse IFN-γ (R&D Systems) plus 100 ng/mL LPS for 24 to 48 h. For M2 polarization, BMDMs were cultured with 20 ng/mL recombinant mouse IL-4 for 24 to 48 h. For lactate-mediated M2 polarization, BMDMs were treated with 10 mM lactate (Sigma-Aldrich, St. Louis, MO) at 37° C. in a humidified atmosphere containing 5% CO2 for 24 to 48 h.
# (§1) Anti-CD11b, anti-CD3, anti-CD4, anti-CD8, anti-CD86, anti-F4/80, anti-CD206, anti-CD163, and anti-Gr1 antibodies were purchased from BioLegend (San Diego, CA). An anti-Olfr78 antibody was purchased from LSBio (Seattle, WA). Anti-CD206 and anti-CD86 antibody was purchased from Santa Cruz Biotechnology (Dallas, TX). Cells were fixed with 4% paraformaldehyde and then reacted with an untagged primary antibody or a dye-tagged antibody at 4° C. for 30 min in the dark. Cells treated with an untagged primary antibody (anti-Olfr78, anti-CD206, and anti-CD86) were washed and reacted with a dye-tagged secondary antibody. At least 10,000 or more events were analyzed using a flow cytometer (BD Bioscience, San Jose, CA). Data were evaluated using CellQuest Pro software (BD Biosciences). To prepare cell suspensions from tumor tissues, freshly excised tumors were fragmented into several pieces, minced into 2-3 mm^3 pieces, and reacted with collagenase D (Roche, Basel, Switzerland) and DNase (Sigma-Aldrich) at 37° C. for 40 min. The tissue samples were filtered through a 100 μm cell strainer (Falcon, Corning, NY) to collect digested cells. Collected cells were resuspended in phosphate-buffered saline containing FBS and subjected to flow cytometry.
# (§2) Cells were lysed using QIAzol lysis reagent (Qiagen, Hilden, Germany). RNA was isolated from cell lysates using an miRNeasy Mini Kit (Qiagen) and subjected to qRT-PCR. Primers targeting Arg1, IL-10, IL-4, TGF-0, IL-12p40, IFN-γ, and R-actin were obtained from Bioneer Inc. (Daejeon, Korea). cDNA was synthesized using a PrimeScript 1st cDNA Synthesis Kit (Takara, Shiga, Japan). qPCR using SYBR Green (Qiagen) was performed on a real time cycler (Bio-Rad, Hercules, CA). R-Actin was used as an endogenous control. Data used to determine relative expression were analyzed according to the Livak method.
# To examine the involvement of Olfr78 in lactate-induced M2 polarization of macrophages, the present inventors conducted investigation on whether Olfr78 was expressed in BMDMs isolated from Olfr78^+/+ (WT) and Olfr78^−/− mice. […] Next, the present inventors differentiated BMDMs into M1 and M2 macrophages to investigate whether the expression level of Olfr78 was regulated according to macrophage polarization. Lactate, TCM, and IL-4 were used to stimulate M2 polarization, while lipopolysaccharide (LPS) plus interferon (IFN)-γ (L+I) was used to stimulate M1 polarization. […] To investigate the effect of Olfr78 on macrophage polarization, the present inventors measured the protein levels of M2 macrophage markers such as CD206 (FIG. 1C) and the mRNA levels of IL-4, IL-10, and TGF-β(FIGS. 1E-G), as well as M1 macrophage markers such as CD86 (FIG. 1D) and the mRNA levels of IL-12 and IFN-γ (FIGS. 1H and 1I) when WT and Olfr78^−/− BMDMs were differentiated into M1 and M2 macrophages. […] Next, the present inventors restored Olfr78 expression in Olfr78^−/− BMDMs by transfecting them with a Flag-tagged Olfr78 expression vector.
# Olfr78/Gpr132 = molecular target: T1, Olfr78/Gpr132; assay: Luciferase assay in transfected Hana3A cells; conditions: Hana3A cells cotransfected with Olfr78 and Gpr132 vs Olfr78 or Gpr132 alone, FIG. 6D
# Protocol: Luciferase assays were performed using the Dual-Glo™ Luciferase Assay System (Promega, Madison, WI). Briefly, Mock-, Olfr78−, Gpr132−, or Olfr78/Gpr132 transiently transfected Hana3A cells were stimulated with various concentrations of sodium lactate diluted in CD293 medium at 37° C. for 4 h. The activity of firefly luciferase was normalized against that of Renilla luciferase. Luminescence was measured on a SpectraMax L microplate reader (Molecular Devices, San Jose, CA).
# [1] = system: THP-1 human immortalized monocytes; assay: M1/M2 polarization of PMA-treated THP-1 human monocytes; conditions: for M1 markers such as iNOS, CD86, TNF-α, and IL-12B / M2 markers such as Arg-1, CD163, CD206, and IL-10: OR51E2-depleted THP1 cells vs untreated; for M1 markers such as iNOS, CD86, TNF-α, and IL-12B: FIGS. 3D, 3E, 3I-K; for M2 markers such as Arg-1, CD163, CD206, and IL-10: FIGS. 3D-H; for protein and mRNA levels of OR51E2: FIGS. 2B, 2C; for levels of M2 macrophage markers such as Arg1, CD206, CD163, and IL-10: FIGS. 2D-H
# Protocol: as §1, §2
# For coimmunoprecipitation assays, cells were lysed with M-PER Mammalian Protein Extraction Reagent (ThermoFisher Scientific, Waltham, MA). Cell lysates were reacted with 2 μg of an antibody against Olfr78 or Gpr132 at 4° C. overnight and then with 100 μl of protein A-agarose beads (ThermoFisher Scientific) at 4° C. for 4 h with agitation. The beads were boiled, and the eluates were subjected to Western blotting with an antibody against Olfr78 or Gpr132. 40 μg of protein was electrophoresed on a 10% SDS-PAGE gel and transferred to a membrane (MilliPore, Burlington, MA). The membrane was reacted with antibodies against iNOS (Abcam, Cambridge, UK), Arg1 (Abcam), and R-actin (Santa Cruz Biotechnology) at 4° C. overnight followed by secondary antibody at room temperature for 2 h, and then exposed to a chemiluminescence substrate (ThermoFisher Scientific). Signals were visualized using an LAS1000 enhanced chemiluminescence detection system (Fuji Film, Minato, Tokyo).
# To examine the effect of ORs on M2 polarization of human macrophages, THP-1 human immortalized monocytes were treated with phorbol myristate acetate (PMA) and then with L+I, IL-4, TCM, or lactate.
molecule,measurement,setting,value
"NC(=O)C(=O)O [OA, oxamic acid]",lactate in TCM,lactate dehydrogenase,almost completely depleted
CC(=O)O [acetate],M2 polarization,"BMDMs; Olfr78−/− BMDMs, FIGS. 4H-J",did not induce M2 polarization
same,"mRNA levels of M2 markers such as IL-4, IL-10, and TGF-β","BMDMs; WT BMDMs, FIGS. 4H-J",significantly (P<0.001) increased
CC(O)C(=O)[O-].[Na+] (stereo not drawn) [sodium lactate],Relative luciferase activity,Olfr78/Gpr132,significantly higher
lactate,Olfr78 expression,BMDMs,significantly increased
same,"mRNA levels of IL-4, IL-10, and TGF-β (lactate-induced)","BMDMs; Gpr132-depleted Olfr78−/− BMDMs, FIGS. 6G-I",further reduced
same,"Lactate-induced up-regulation of mRNA levels of M2 cytokines such as IL-4, IL-10, TGF-β, and Arg1","BMDMs; Gpr132-depleted WT BMDMs, FIGS. 6G-J",significantly (P<0.01) reduced
same,M2-specific and M1-specific markers,"BMDMs; Olfr78−/− BMDMs vs untreated, FIGS. 1C-I",did not exhibit up-regulation of M2-specific markers or down-regulation of M1-specific markers
same,protein level of CD206 (M2 marker),"BMDMs; WT BMDMs vs untreated, FIG. 1C",dramatically (P<0.001) higher
same,protein level of CD86 (M1 marker),"BMDMs; WT BMDMs vs untreated, FIG. 1D",significantly lower
same,"mRNA levels of IL-4, IL-10, and TGF-β (M2 markers)","BMDMs; WT BMDMs vs untreated, FIGS. 1E-G",dramatically (P<0.001) higher
same,mRNA levels of IL-12 and IFN-γ (M1 markers),"BMDMs; WT BMDMs vs untreated, FIGS. 1H and 1I",significantly lower
same,"M2 polarization markers, such as CD206, IL-4, IL-10, and TGF-0","BMDMs; WT BMDMs vs untreated, FIGS. 4B-E",significant up-regulation
same,percentage of cells with an elongated shape,"BMDMs; WT BMDMs vs untreated, FIGS. 4F, 4G",increase
same,M2 polarization of THP-1 human monocytes,[1]; FIG. 2 legend,induces M2 polarization
same,"M1 markers such as iNOS, CD86, TNF-α, and IL-12B",[1],"did not up-regulate M2 markers such as Arg-1, CD163, CD206, and IL-10 (FIGS. 3D-H) or down-regulate M1 markers"
same,"M2 markers such as Arg-1, CD163, CD206, and IL-10",[1],did not up-regulate
same,iNOS levels,"[1]; THP-1 cells vs untreated, FIGS. 2D, 2E",decreased
same,protein and mRNA levels of OR51E2,[1]; THP-1 cells,significantly (P<0.01) increased
same,"levels of M2 macrophage markers such as Arg1, CD206, CD163, and IL-10",[1]; THP-1 cells,increased
same,"levels of M1 macrophage markers such as CD86, TNF-α, and IL-12B","[1]; THP-1 cells, FIGS. 2I-K",did not affect
"IL-4: recombinant interleukin-4 used to stimulate M2 polarization (protein, UniProt P05112 25-153, looked up) Interleukin-4: HKCDITLQEIIKTLNSLTEQKTLCTELTVTDIFAASKNTTEKETFCRAATVLRQFYSHHEKDTRCLGATAQQFHRHKQLIRFLKRLDRNLWGLAGLNSCPVKEANQSTLENFLERLKTIMREKYSKCSS",Olfr78 expression,BMDMs,significantly increased
same,CD206,"BMDMs; Olfr78−/− BMDMs, FIG. 1C",still up-regulated
same,CD86,"BMDMs; Olfr78−/− BMDMs, FIG. 1D",down-regulated
same,protein level of CD206 (M2 marker),"BMDMs; WT BMDMs vs untreated, FIG. 1C",up-regulated
same,protein level of CD86 (M1 marker),"BMDMs; WT BMDMs vs untreated, FIG. 1D",down-regulated
same,"M1 markers such as iNOS, CD86, TNF-α, and IL-12B",[1],down-regulated
same,"M2 markers such as Arg-1, CD163, CD206, and IL-10",[1],still up-regulated
same,protein and mRNA levels of OR51E2,[1]; THP-1 cells,significantly (P<0.01) increased
same,"levels of M2 macrophage markers such as Arg1, CD206, CD163, and IL-10",[1]; THP-1 cells,increased

# — US20240201172A1, “USE OF ODORANT RECEPTOR FOR SUPPRESSING LACTATE-INDUCED M2-TYPE DIFFERENTIATION OF TUMOR-ASSOCIATED MACROPHAGES AND TUMOR GROWTH” (KYUNGPOOK NATIONAL UNIVERSITY INDUSTRY-ACADEMIC COOPERATION …, priority 2021, published 2024)
